In the supplement of paper PMC11208160:

assay: recombinant UMI read abundance after kanamycin selection (control-corrected) (log10(CPM+1)); higher = more efficient recombination; extreme values may be limits of the assay; sequences stand for … in AGTGCAGAGAAAATCGGCCAGTTTTCTCTGCCTGCAGTCCGCATGCCGTGGGACCCCTTGGGTTCTAACCTGTTGCCTAGATTTATGCAGCGGACTGCCTTTCTCCCAAAGTGATAAACCGG…AGGTTGGTTTCACT; site = the 11-nt donor
Procedure, shortened: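 Each donor and donor-binding-loop pair was tracked by a 12-nt UMI on a plasmid carrying a promoterless kanamycin gene. With a second plasmid supplying a fixed target and T7-inducible IS621 bridge recombinase, the pool was plated in Escherichia coli on IPTG (0.07 mM) plus kanamycin or unselected. Sequencing of recombinant UMIs across the donor–target junction gave counts expressed as log10(CPM+1) after replicate averaging and control-derived scaling.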
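Further: IS621 bridge recombinase in Escherichia coli cells against a fixed T5 target plasmid.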

Going from “CTCTACACATGGACCGGTTTTCCCGGTAATCCGTATTTGCT (site CTCTACACTAC)” to “CTCTACACATGGACCGGTTTTCCCGGTAATCCGTATTTGCT (site CTCTACACTAG)”, the “recombinant UMI read abundance (log10)” value rises from 0.0172 to 2.41.

Compared with “CTCTACACATGGACCGGTTTTCCCGGTAATCCGTATTTGCT (site CTCTACACTAT)”, “CTCTACACATGGACCGGTTTTCCCGGTAATCCGTATTTGCT (site CTCTACACTCG)” is lower in “recombinant UMI read abundance (log10)” value: 0.916 for the first, 0.238 for the second.

First: CTCTACACATGGACCGGTTTTCCCGGTAATCCGTATTTGCT (site CTCTACACTGG)
Second: CTCTACACATGGACCGGTTTTCCCGGTAATCCGTATTTGCT (site CTCTACACTTG)
The “recombinant UMI read abundance (log10)” value of the first is higher: 1.37 for the first, 1.15 for the second.

Going from “CTCTACACATGGACCGGTTTTCCCGGTAATCCGTATTTGCT (site CTCTACCCTAG)” to “CTCTACACATGGACCGGTTTTCCCGGTAATCCGTATTTGCT (site CTCTACGCTAG)”, the “recombinant UMI read abundance (log10)” value rises from 0 to 0.84.

First: CTCTACACATGGACCGGTTTTCCCGGTAATCCGTATTTGCT (site CTCTACTCTAG)
Second: CTCTACACATGGACCGGTTTTCCCGGTAATCCGTATTTGCT (site CTCTAGACTAG)
The “recombinant UMI read abundance (log10)” value of the first is higher: 0.78 for the first, 0.0131 for the second.

“CTCTACACATGGACCGGTTTTCCCGGTAATCCGTATTTGCT (site CTCTATACTAG)” and “CTCTACACATGGACCGGTTTTCCCGGTAATCCGTATTTGCT (site CTCTCCACTAG)” are within 0.2 log units of each other in “recombinant UMI read abundance (log10)” value: 0.00765 for the first, 0 for the second.

First: CTCTACACATGGACCGGTTTTCCCGGTAATCCGTATTTGCT (site CTCTGCACTAG)
Second: CTCTACACATGGACCGGTTTTCCCGGTAATCCGTATTTGCT (site CTCTTCACTAG)
The “recombinant UMI read abundance (log10)” value of the first is lower: 0.00734 for the first, 0.548 for the second.

Compared with “CTCTACACATGGACCGGTTTTCCCGGTAATCCGTATTTGCT (site CTGTACACTAG)”, “CTCTACACATGGACCGGTTTTCCCGGTAATCCGTATTTGCT (site CTTTACACTAG)” is higher in “recombinant UMI read abundance (log10)” value: 0.0999 for the first, 0.644 for the second.

“CTCTACACATGGACCGGTTTTCCCGGTAATCCGTATTTGCT (site GTCTACACTAG)” and “CTCTACACATGGACCGGTTTTCCCGGTAATCCGTATTTGCT (site TTCTACACTAG)” are within 0.2 log units of each other in “recombinant UMI read abundance (log10)” value: 0.232 for the first, 0.107 for the second.

First: CTCTACACATGGACCGGTTTTCCCGGTAATCCGTATTTGTT (site CTCTACACTAA)
Second: CTCTACACATGGACCGGTTTTCCCGGTAATCCGTATTTGTT (site CTCTACACTAC)
The “recombinant UMI read abundance (log10)” value of the first is higher: 0.93 for the first, 0.0026 for the second.

Going from “CTCTACACATGGACCGGTTTTCCCGGTAATCCGTATTTGTT (site CTCTACACTAG)” to “CTCTACACATGGACCGGTTTTCCCGGTAATCCGTATTTGTT (site CTCTACACTAT)”, the “recombinant UMI read abundance (log10)” value falls from 1.45 to 0.616.

Going from “CTCTACTCATGGACCGGTTTTCCCGGTAATCCGTATTTGCT (site CTCTACACTAG)” to “CTCTACTCATGGACCGGTTTTCCCGGTAATCCGTATTTGCT (site CTCTACCCTAG)”, the “recombinant UMI read abundance (log10)” value rises from 0.869 to 1.17.

Compared with “CTCTACTCATGGACCGGTTTTCCCGGTAATCCGTATTTGCT (site CTCTACGCTAG)”, “CTCTACTCATGGACCGGTTTTCCCGGTAATCCGTATTTGCT (site CTCTACTCTAG)” is higher in “recombinant UMI read abundance (log10)” value: 0.00255 for the first, 2.5 for the second.

Compared with “CTCTAGCCATGGACCGGTTTTCCCGGTAATCCGTATTTGCC (site CACTAGCCTGG)”, “CTCTAGCCATGGACCGGTTTTCCCGGTAATCCGTATTTGCC (site CCCTAGCCTGG)” is lower in “recombinant UMI read abundance (log10)” value: 0.69 for the first, 0 for the second.

“CTCTAGCCATGGACCGGTTTTCCCGGTAATCCGTATTTGCC (site CGCTAGCCTGG)” and “CTCTAGCCATGGACCGGTTTTCCCGGTAATCCGTATTTGCC (site CTCTAGCCTGG)” are the same in “recombinant UMI read abundance (log10)” value: 0 for the first, 0 for the second.

Compared with “CTCTATACATGGACCGGTTTTCCCGGTAATCCGTATTTGAC (site ATCTATACTGT)”, “CTCTATACATGGACCGGTTTTCCCGGTAATCCGTATTTGAC (site CTCTATACTGT)” is higher in “recombinant UMI read abundance (log10)” value: 0 for the first, 2.07 for the second.

“CTCTATACATGGACCGGTTTTCCCGGTAATCCGTATTTGAC (site GTCTATACTGT)” and “CTCTATACATGGACCGGTTTTCCCGGTAATCCGTATTTGAC (site TTCTATACTGT)” are within 0.2 log units of each other in “recombinant UMI read abundance (log10)” value: 0.00602 for the first, 0 for the second.

Compared with “CTCTCATCATGGACCGGTTTTCCCGGTAATCCGTATTTGCT (site CGATCATCTAG)”, “CTCTCATCATGGACCGGTTTTCCCGGTAATCCGTATTTGCT (site CTCTCATCTAG)” is higher in “recombinant UMI read abundance (log10)” value: 0 for the first, 2.05 for the second.

First: CTCTCCACATGGACCGGTTTTCCCGGTAATCCGTATTTGTC (site CTCTCCACTGA)
Second: CTCTCGACATGGACCGGTTTTCCCGGTAATCCGTATTTGAC (site CTCTCGACTGT)
The “recombinant UMI read abundance (log10)” value of the first is higher: 2.77 for the first, 1.34 for the second.

Going from “CTCTGCCCATGGACCGGTTTTCCCGGTAATCCGTATTTGAT (site CTCTGCCCTAT)” to “CTCTGGCCATGGACCGGTTTTCCCGGTAATCCGTATTTGCG (site CTCTGGCCTCG)”, the “recombinant UMI read abundance (log10)” value falls from 0.509 to 0.

Going from “CTCTTCTCATGGACCGGTTTTCCCGGTAATCCGTATTTGCT (site CTCTTCTCTAG)” to “CTGAATTCATGGACCGGTTTTCCCGGTAATCCGTATTTGCC (site CTGAATTCTGG)”, the “recombinant UMI read abundance (log10)” value falls from 2.6 to 1.06.

“CTGACATCATGGACCGGTTTTCCCGGTAATCCGTATTTGAG (site CTGACATCTCT)” and “CTGACGACATGGACCGGTTTTCCCGGTAATCCGTATTTGCA (site CTGACGACTTG)” are within 0.2 log units of each other in “recombinant UMI read abundance (log10)” value: 1.86 for the first, 1.71 for the second.

First: CTGATACCATGGACCGGTTTTCCCGGTAATCCGTATTTGTA (site CTGATACCTTA)
Second: CTGCAACCATGGACCGGTTTTCCCGGTAATCCGTATTTGCT (site CTGCAACCTAG)
The “recombinant UMI read abundance (log10)” value of the first is lower: 0.00514 for the first, 0.209 for the second.

“CTGCAACCATGGACCGGTTTTCCCGGTAATCCGTATTTGCT (site CTGCCACCTAG)” and “CTGCAACCATGGACCGGTTTTCCCGGTAATCCGTATTTGCT (site CTGCGACCTAG)” are within 0.2 log units of each other in “recombinant UMI read abundance (log10)” value: 0.0268 for the first, 0.00379 for the second.

“CTGCAACCATGGACCGGTTTTCCCGGTAATCCGTATTTGCT (site CTGCTACCTAG)” and “CTGCATCCATGGACCGGTTTTCCCGGTAATCCGTATTTGTT (site CGGAATCCTAA)” are within 0.2 log units of each other in “recombinant UMI read abundance (log10)” value: 0 for the first, 0.00365 for the second.

Going from “CTGCATCCATGGACCGGTTTTCCCGGTAATCCGTATTTGTT (site CTGCATCCTAA)” to “CTGCGACCATGGACCGGTTTTCCCGGTAATCCGTATTTGCT (site CTGCAACCTAG)”, the “recombinant UMI read abundance (log10)” value falls from 0.855 to 0.

“CTGCGACCATGGACCGGTTTTCCCGGTAATCCGTATTTGCT (site CTGCCACCTAG)” and “CTGCGACCATGGACCGGTTTTCCCGGTAATCCGTATTTGCT (site CTGCGACCTAG)” are within 0.2 log units of each other in “recombinant UMI read abundance (log10)” value: 0.0046 for the first, 0 for the second.

Going from “CTGCGACCATGGACCGGTTTTCCCGGTAATCCGTATTTGCT (site CTGCTACCTAG)” to “CTGCGCTCATGGACCGGTTTTCCCGGTAATCCGTATTTGCG (site CTGCGCTCTCG)”, the “recombinant UMI read abundance (log10)” value rises from 0 to 1.11.

In the case of “CTGCGTGCATGGACCGGTTTTCCCGGTAATCCGTATTTGTA (site CTGCGTGCTTA)”, the “recombinant UMI read abundance (log10)” value is reported as 2.28.
